# Assay results reported in patent US9238670B2, “Aminoglycoside antibiotics with reduced ototoxicity” (priority 2013, dated 2016).
# Where two headings read alike, the source gives them in different places.
# Columns and labels:
# mouse [1] = settings: in vivo
# [2] = test system: hair cells of cochlea organ of corti cultures; assay: in vitro
# Method: For example, an ototoxicity test that can be used includes the steps of (1) treating organ of corti cultures with a compound of the invention and a parent aminoglycoside compound for a certain period of time (e.g., 1 hour), respectively; (2) washing and then culturing the treated tissue for some period of time (e.g., 2 days); (3) fixing and staining the tissue so that hair cell counts can be obtained; and (4) comparing the hair cell counts between the tissue treated by the compound of the invention and the tissue treated by the parent aminoglycoside compound.
# Ototoxicity was also assayed using cochlea organ of corti cultures. The cultures were made at 4 days post birth (P4), cultured for 1 day and then treated for 1 hour with test compound. The tissue was then washed and cultured for an additional two days at which time the tissue is fixed and stained so that hair cell counts could be obtained. This method is similar to that used previously in characterizing aminoglycoside ototoxicity (Alharazneh et al., 2011). Fixed regions at the apex, middle, and base of the cochlea were imaged and cell counts obtained. […] Data were quantified across cochlear regions for this same compound. Quantification was by counting the number of outer hair cells present over a given distance. […] A dose response curve was created for the parent compound as well as the tested novel aminoglycoside. […] Other sisomicin derivatives were also tested for ototoxicity.
# mouse [3] = assay: LD50 after intraperitoneal injection in mouse model; assay type: in vivo; settings: FIG. 5
# E. coli = E. coli assay of minimal inhibitory (MIC) and minimal bactericidal (MBC) concentrations; assay type: cell-based; settings: FIGS. 1A and 1B
# Method: FIGS. 1A and 1B are bar graphs showing antimicrobial activities of a variety of sisomicin derivatives (MS=methyl sulfonyl, PS=phenyl sulfonyl, BZ=benzoyl, SiRho=rhodamine; and 1N and 3″ indicate substituents' position on sisomicin). The negative values reflect an arbitrary value indicating no detectable level of activity.
# Both antimicrobial activity and ototoxicity in several of the synthesized compounds were assessed. To test antimicrobial activity, an E. coli assay was used to test both minimal inhibitory concentrations (MIC) as well as minimal bactericidal concentrations (MBC). A cross section of results was presented in FIG. 1, for control and a variety of tested compounds. […] Antimicrobial activity remained stable for each compound over time.
smiles,measurement,setting,value
"CN[C@@H]1[C@@H](O)[C@@H](O[C@@H]2[C@@H](O)[C@H](O[C@H]3OC(CN)=CC[C@H]3N)[C@@H](N)C[C@H]2N)OC[C@]1(C)O [sisomicin, reference compound]",hair cell loss in histological preparations of the cochlea,mouse [1],significant hair cell loss
same,Kd at 1 h,[2],120 µM
same,hair cells in stained tissue (FIG. 2),[2],no hair cells remained
same,"outer hair cells killed, apex of cochlea",[2]; 1 h,about 60%
same,"outer hair cells killed, base and middle of cochlea",[2]; 1 h,more than 90%
"CN([C@@H]1[C@@H](O)[C@@H](O[C@@H]2[C@@H](O)[C@H](O[C@H]3OC(CN)=CC[C@H]3N)[C@@H](N)C[C@H]2NS(C)(=O)=O)OC[C@]1(C)O)S(C)(=O)=O [1N,3″N-methyl sulfonyl sisomicin, 1,3″-N-bis-methylsulfonyl sisomicin]",ototoxicity compared in words,[2]; 1 h,about equally non-ototoxic as 1N-methyl sulfonyl sisomicin
"CN([C@@H]1[C@@H](O)[C@@H](O[C@@H]2[C@@H](O)[C@H](O[C@H]3OC(CN)=CC[C@H]3N)[C@@H](N)C[C@H]2NS(=O)(=O)c2ccccc2)OC[C@]1(C)O)S(=O)(=O)c1ccccc1 [1N,3″N-phenyl sulfonyl sisomicin, 1,3″-dibenzenesulfonyl-sisomicin]",ototoxicity compared in words,[2],about equally ototoxic as sisomicin
"CN[C@@H]1[C@@H](O)[C@@H](O[C@@H]2[C@@H](O)[C@H](O[C@H]3OC(CN)=CC[C@H]3N)[C@@H](N)C[C@H]2NS(=O)(=O)c2ccccc2)OC[C@]1(C)O [1N phenyl sulfonyl sisomicin, 1-Benzenesulfonyl-sisomicin]",less toxic than sisomicin (ototoxicity),[2]; 1 h,about 80%
"CN[C@@H]1[C@@H](O)[C@@H](O[C@@H]2[C@@H](O)[C@H](O[C@H]3OC(CN)=CC[C@H]3N)[C@@H](N)C[C@H]2NC(=O)c2ccccc2)OC[C@]1(C)O [1N benzoyl sisomicin, 1-benzoyl sisomicin]",less toxic than sisomicin (ototoxicity),[2]; 1 h,30%
"CN([C@@H]1[C@@H](O)[C@@H](O[C@@H]2[C@@H](O)[C@H](O[C@H]3OC(CN)=CC[C@H]3N)[C@@H](N)C[C@H]2N)OC[C@]1(C)O)S(C)(=O)=O [3″N-methyl sulfonyl sisomicin, 3″-methylsulfonyl sisomicin]",ototoxicity compared in words,[2]; 1 h,about equally non-ototoxic as 1N-methyl sulfonyl sisomicin
"CN[C@@H]1[C@@H](O)[C@@H](O[C@@H]2[C@@H](O)[C@H](O[C@H]3OC(CN)=CC[C@H]3N)[C@@H](N)C[C@H]2NS(C)(=O)=O)OC[C@]1(C)O [1N-methyl sulfonyl sisomicin, 1-N-methylsulfonyl sisomicin]",LD50 relative to LD50 of the parent sisomicin (fold higher),mouse [3],3 ×
same,hair cell loss in histological preparations of the cochlea,mouse [1],no loss of hair cells
same,Kd at 1 h,[2],1500 µM
same,fold less toxic than the parent compound,[2],more than ten-fold shift in sensitivity for toxicity
same,hair cell loss at any of the cochlea regions tested,[2],did not cause any hair cell loss
same,hair cells in stained tissue (FIG. 2),[2],no hair cell loss
same,fold less toxic than the parent compound,[2]; 1 h,more than 10 ×
same,"antimicrobial activity (MIC, MBC)",E. coli,retained antimicrobial activity
"CN([C@@H]1[C@@H](O)[C@@H](O[C@@H]2[C@@H](O)[C@H](O[C@H]3OC(CN)=CC[C@H]3N)[C@@H](N)C[C@H]2N)OC[C@]1(C)O)S(=O)(=O)c1ccccc1 [3″N-phenyl sulfonyl sisomicin, 3″-benzenesulfonyl-sisomicin]",ototoxicity compared in words,[2],about equally ototoxic as sisomicin
"CN(C(=O)c1ccccc1)[C@@H]1[C@@H](O)[C@@H](O[C@@H]2[C@@H](O)[C@H](O[C@H]3OC(CN)=CC[C@H]3N)[C@@H](N)C[C@H]2N)OC[C@]1(C)O [3″N-benzoyl sisomicin, 3″-Benzoyl sisomicin]",less toxic than sisomicin (ototoxicity),[2]; 1 h,about 60%
